Measured values as given in patent US5190741A, “Agents for diagnosing and treating melanomas, aromatic halogenated derivatives usable as such agents and their preparation” (Institut National de la Sante et de la Recherche Medicale …, priority 1989, dated 1993).

What was measured:
B16 murine melanoma = assay: Tissue distribution in C57 BL6 mice bearing B16; assay type: in vivo, mouse; conditions: for elimination kinetics: compared with derivative A; for marker of the B16 murine melanoma: mouse, in vivo
Experimental: The study of the tissue distribution of the ^125 I labelled compounds was performed in mice bearing grafted melanomas (cf. autoradiograms above). […] The animals are sacrificed at different time intervals of 1 to 24 hours after the injection. The blood is collected and the principal organs are excised. Aliquots are weighed and the radioactivity of the samples is measured in a […] 1191 counter (analytic tracer). The counting yield for iodine 125 is 60%. The results are expressed: as a percentage of the injected dose bound per g of tissue (% ID/g); in the form of the ratios [formula] This ratio reflects more precisely the selectivity of a molecule for an organ (tables 2, 4, 6, 8, 10 and 12).

melanoma in man = conditions: in vivo; cited from earlier work
melanoma = conditions: in vivo; cited from earlier work
grafted tumors = conditions: animals bearing grafted tumors; cited from earlier work

| Structure (SMILES) | elimination kinetics (B16 murine melanoma) | marker of the B16 murine melanoma (B16 murine melanoma) | further results |
| --- | --- | --- | --- |
| CN(C)CCCNC(=O)c1ccc(I)cc1 [Derivative J] | more rapid elimination | markers of the B16 murine melanoma | – |
| CC(C)NC(C)Cc1ccc([123I])cc1 (stereo not drawn) [^123 I-IMP] | – | – | detection of melanoma in man (melanoma in man): used for the detection of melanoma in man |
| CN(C)CCNC(=O)c1ccc(I)cc1 [Derivative E] | more rapid elimination | markers of the B16 murine melanoma | possibility for use in scanning (B16 murine melanoma; between 3 h and 6 h after administration): possibilities for use in scanning between 3 h and 6 h |
| O=C([O-])CC(O)(CC(=O)[O-])C(=O)[O-].[67Ga+3] [citrate of gallium 67] | – | – | elimination from the digestive tract (melanoma): very slow elimination from the digestive tract; localization in the liver and the kidney (melanoma): late and extensive localization in the liver and the kidney |
| CC(C)N(CCNC(=O)c1ccc(I)cc1)C(C)C [Derivative G] | – | markers of the B16 murine melanoma | – |
| O=c1[nH]c(=S)[nH]cc1I [iodothiouracil labelled with ^125 I, iodothiouracil] | – | – | localization and treatment of malignant melanoma (grafted tumors): promising agent for the localization and the treatment of malignant melanoma |
| CCN(CC)CCCNC(=O)c1ccc(I)cc1 [Derivative L] | more rapid elimination | markers of the B16 murine melanoma | – |
